Results taken from ChEMBL document CHEMBL4396960, “Optimization of 1,3-disubstituted urea-based inhibitors of Zika virus infection” (Bioorg Med Chem Lett, 2019).
pIC50: −log10 of the molar value.

What was measured:
Zika virus [1] = assay: Antiviral activity against Zika virus infected in human A549 cells assessed as reduction in viral titer incubated for 48 hrs by plaque assay; type: functional, organism-based; conditions: A549, 48 h
A549 [2] = assay: Cytotoxicity against human A549 cells assessed as reduction in cell viability at <= 1 uM by MTT assay; type: cell-based
A549 [3] = assay: Cytotoxicity against human A549 cells assessed as reduction in cell viability at > antiviral IC50 by MTT assay; type: cell-based
Zika virus [4] = assay: Potency index, ratio of ASN 07115873 to compound IC50 for Antiviral activity against Zika virus infected in human A549 cells; type: functional

| Structure (SMILES) | pIC50 (Zika virus [1]) | Activity (A549 [2]) | Activity (A549 [3]) | Ratio IC50 (Zika virus [4]) |
| --- | --- | --- | --- | --- |
| C=CCSc1nsc(NC(=O)Nc2ccc(Cl)cc2)n1 | 9.72 | Non-Toxic | >= 50% |  |
| C#CCSc1nsc(NC(=O)Nc2ccc(Cl)c(C(F)(F)F)c2)n1 | 9.02 | Non-Toxic | >= 50% |  |
| C=CCSc1nnc(NC(=S)Nc2ccc(Br)cc2)s1 | 9.83 | Non-Toxic | >= 50% |  |
| C=CCSc1nsc(NC(=S)Nc2ccc(Cl)c(C(F)(F)F)c2)n1 | 8.31 | Non-Toxic | >= 50% |  |
| C=CCSc1nsc(NC(=S)Nc2ccc(Cl)cc2)n1 | 6.31 | Non-Toxic | >= 50% |  |
| C#CCSc1nsc(NC(=O)Nc2ccc(I)cc2)n1 | 9.09 | Non-Toxic | >= 50% |  |
| C=CCSc1nc(NC(=S)Nc2ccc(Cl)cc2)ns1 | 5.59 | Non-Toxic | >= 50% |  |
| C=CCSc1nsc(NC(=O)Nc2ccc(I)cc2)n1 | 9.38 | Non-Toxic | >= 50% |  |
| CCCSc1nnc(NC(=O)Nc2ccc(Cl)c(C(F)(F)F)c2)s1 | 9.83 |  |  |  |
| C=CCSc1nnc(NC(=O)Nc2ccc(Br)cc2C(F)(F)F)s1 | 5.04 |  |  |  |
| C=CCSc1nnc(NC(=O)Nc2ccc(Br)cc2)s1 | 9.84 | Non-Toxic | >= 50% |  |
| C=CCSc1nc(NC(=S)Nc2ccc(Br)cc2)ns1 | 5.39 | Non-Toxic | >= 50% |  |
| C=CCSc1nc(NC(=O)Nc2ccc(Cl)c(C(F)(F)F)c2)ns1 | 6.00 | Non-Toxic | >= 50% |  |
| C=CCNc1nc(NC(=O)Nc2ccc(Cl)c(C(F)(F)F)c2)ns1 | 9.95 | Non-Toxic | >= 50% |  |
| C=CCSc1nsc(NC(=S)Nc2ccc(I)cc2)n1 | 5.59 | Non-Toxic | >= 50% |  |
| C#CCSc1nsc(NC(=S)Nc2ccc(Cl)c(C(F)(F)F)c2)n1 | 7.24 | Non-Toxic | >= 50% |  |
| C=CCNc1nc(NC(=O)Nc2ccc(I)cc2)ns1 | 10.00 | Non-Toxic | >= 50% |  |
| C=CCSc1nc(NC(=O)Nc2ccc(Br)cc2)ns1 | 5.89 | Non-Toxic | >= 50% |  |
| O=C(Nc1ccc(Cl)c(C(F)(F)F)c1)Nc1nnc(S)s1 | 9.01 |  |  |  |

| Structure (SMILES) | pIC50 (Zika virus [1]) | Activity (A549 [2]) | Activity (A549 [3]) | Ratio IC50 (Zika virus [4]) |
| --- | --- | --- | --- | --- |
| C=CCSc1nsc(NC(=O)Nc2ccc(Br)cc2)n1 | 9.48 | Non-Toxic | >= 50% |  |
| C=CCSc1nsc(NC(=S)Nc2ccc(Br)cc2)n1 | 5.68 | Non-Toxic | >= 50% |  |
| C=CCNc1nc(NC(=O)Nc2ccc(Cl)cc2)ns1 | 10.07 | Non-Toxic | >= 50% | 2.2 |
| C#CCSc1nsc(NC(=O)Nc2ccc(Cl)cc2)n1 | 8.85 | Non-Toxic | >= 50% |  |
| C=CCSc1nnc(NC(=S)Nc2ccc(I)cc2)s1 | 9.81 | Non-Toxic | >= 50% |  |
| C=CCSc1nsc(NC(=O)Nc2ccc(Cl)c(C(F)(F)F)c2)n1 | 9.37 | Non-Toxic | >= 50% |  |
| C=CCSc1nnc(NC(=S)Nc2ccc(Br)cc2C(F)(F)F)s1 | 7.33 |  |  |  |
| C=CCSc1nc(NC(=S)Nc2ccc(Br)cc2C(F)(F)F)ns1 | 5.54 |  |  |  |
| C=CCSc1nnc(NC(=O)Nc2ccc(I)cc2)s1 | 9.75 | Non-Toxic | >= 50% |  |
| C=CCSc1nnc(NC(=O)Nc2ccc(Cl)cc2)s1 | 9.72 | Non-Toxic | >= 50% |  |
| C#CCSc1nsc(NC(=O)Nc2ccc(Br)cc2)n1 | 9.18 | Non-Toxic | >= 50% |  |
| C=CCNc1nc(NC(=O)Nc2ccc(Br)cc2)ns1 | 10.01 | Non-Toxic | >= 50% |  |
| C=CCSc1nnc(NC(=S)Nc2ccc(Cl)c(C(F)(F)F)c2)s1 | 10.01 | Non-Toxic | >= 50% |  |
| C=CCSc1nc(NC(=S)Nc2ccc(I)cc2)ns1 | 5.57 | Non-Toxic | >= 50% |  |
| C#CCSc1nsc(NC(=S)Nc2ccc(Br)cc2)n1 | 6.15 | Non-Toxic | >= 50% |  |
| C=CCSc1nc(NC(=S)Nc2ccc(Cl)c(C(F)(F)F)c2)ns1 | 6.63 | Non-Toxic | >= 50% |  |
| C=CCSc1nnc(NC(=O)Nc2ccc(Cl)c(C(F)(F)F)c2)s1 | 9.96 | Non-Toxic | >= 50% |  |
| C=CCSc1nc(NC(=O)Nc2ccc(I)cc2)ns1 | 5.92 | Non-Toxic | >= 50% |  |
